How the values were obtained:
[1] = tested on: MDA-MB-435 cells; experiment: Mitochondrial superoxide production (MitoSOX Red); type: cell-based, human
Description: After drug treatments, a solution of 5 μM MitoSOX Red mitochondrial superoxide indicator (Invitrogen, Carlsbad, Calif.) was added, and cells were incubated for 10 min at 37° C. Cells were then washed three times with Hank's balanced salt solution (HBSS) to remove excess MitoSOX. After washing, cells were either observed under the fluorescence microscope or collected by trypsinization, washed twice with HBSS, and measured for superoxide production using a BD LSRII flow cytometer (BD Biosciences, San Jose, Calif., USA). Data were analyzed with the BD FACSDiva software package (BD Biosciences, San Jose, Calif., USA).

[2] = tested on: OVCAR3 ovarian cancer cell line; experiment: In vitro cytotoxicity, OVCAR3; type: cell-based; conditions: Homo sapiens, OVCAR-3; Table 4, ovarian cancer panel
Description: (§1) Cytotoxicity was assessed by MTT assay as described previously. 43 In brief, cells were seeded in 96-well microtiter plates and allowed to attach overnight. Cells were subsequently treated with continuous exposure to corresponding drugs for 72 h. At the end of treatments, an MTT solution (at a final concentration of 0.5 mg/mL) was added to each well, and cells were incubated for 4 h at 37° C. After removal of the supernatant, DMSO was added, and the absorbance was read at 570 nm. All assays were done in triplicate. The IC50 was then determined for each drug from a plot of log(drug concentration) versus percentage of cells killed.

[3] = tested on: OVCAR8 ovarian cancer cell line; experiment: In vitro cytotoxicity, OVCAR8; type: cell-based; conditions: Homo sapiens, OVCAR-8; Table 4, ovarian cancer panel
Description: as §1

[4] = tested on: doxorubicin-resistant NCI/ADR-RES ovarian cancer cell line; experiment: Cytotoxicity assay, NCI/ADR-RES; type: cell-based; conditions: Homo sapiens
Description: as §1

[5] = tested on: HEY ovarian cancer cell line; experiment: Cytotoxicity assay, HEY; type: cell-based; conditions: Homo sapiens
From the text: (§2) The human breast cancer cell line MDA-MB-435 and the colon cancer cell line HT29 were purchased from the American Type Cell Culture (Manassas, Va.). Colon cancer cell lines HCT116 p53^+/+ and HCT116 p53^−/− were kindly provided by Dr. Bert Vogelstein (Johns Hopkins Medical Institutions, Baltimore, Md.). The human ovarian carcinoma cell line (HEY), naturally resistant to cisplatin (CDDP), was kindly provided by Dr. Louis Dubeau (USC Norris Cancer Center). The bladder cancer cell lines were kindly provided by Dr. Richard Cote (USC Keck School of Medicine). Cells were maintained as monolayer cultures in the appropriate media: RPMI-1640 (HT29, HCT116 p53^+/+, HCT116 p53^−/−, and HEY cell lines) or DMEM (MDA-MB-435 and UMUC3 cell lines) supplemented with 10% fetal bovine serum (FBS) (HyClone, Road Logan, Utah) at 37° C. in a humidified atmosphere of 5% CO2. To remove the adherent cells from the flask for subculture and counting, cells were washed with PBS without calcium or magnesium, incubated with a small volume of 1×trypsin-EDTA solution (Sigma-Aldrich, St. Louis, Mo.) for 5 min, resuspended with fresh culture medium, and centrifuged at 1200 rpm for 5 min. All experiments were performed using cells in exponential growth phase. Cells were routinely checked for Mycoplasma contamination using PlasmaTest kit (InvivoGen, San Diego, Calif.).
as §1

[6] = tested on: HCT116 p53^−/− colon cancer cell line; experiment: MTT cytotoxicity assay, HCT116 p53-/-; type: cell-based; conditions: Homo sapiens, HCT-116, 72 h exposure
From the text: as §2, §1

[7] = Pharmacokinetics study after i.p. administration; type: in vivo, mice; conditions: mouse, ip
Description: To assess the efficacy, tolerability, and pharmacokinetics of these novel compounds following i.p. administration, the pharmacokinetic profile of compounds 4 and 9 was evaluated (Table 3). Mice were treated with compounds 4 and 9 via i.p. injection and serial blood sampling was determined at indicated times after administration. The plasma concentration was determined using a validated liquid chromatography mass spectrometry (LC-MS) method where the lowest level of quantification was 1 ng/mL. One hour following i.p. administration of compounds 4 and 9, their concentrations in the blood were 344 and 6.2 ng/mL, respectively. […] The half-lives of compounds 4 and 9 via i.p. administration were determined to be approximately 3.5 and 9.3 hours, respectively, when a non-compartmental pharmacokinetics analysis was used. The favorable pharmacokinetics profile of compounds 4 and 9 is consistent with the ADMET predictions described previously.
Preliminary pharmacokinetics of compounds 4 and 9 were performed using 18 mice, each time point consisting of two mice. Mice were stratified to various doses given as an i.p. injection of compounds 4 and 9 (24 mg/kg). At the specified time points following drug administration, blood was collected with heparinized syringes. The samples were allowed to settle in 500 μL eppendorf vials and then centrifuged at 1500 rpm for 10 min. The plasma was removed, transferred into new eppendorf tube, and frozen at −80° C. until analysis.

[8] = tested on: HCT116 p53^+/+ colon cancer cell line; experiment: MTT cytotoxicity assay, HCT116 p53+/+; type: cell-based; conditions: Homo sapiens, HCT-116, 72 h exposure
From the text: as §2, §1

[9] = tested on: HT29 colon cancer cell line; experiment: MTT cytotoxicity assay, HT29; type: cell-based; conditions: Homo sapiens, HT-29, 72 h exposure
From the text: as §2, §1

[10] = tested on: 5637 bladder cancer cell line; experiment: MTT cytotoxicity assay, 5637; type: cell-based, human; conditions: Homo sapiens, 72 h exposure
From the text: as §2, §1

[11] = tested on: MDA-MB-435 breast cancer cell line; experiment: MTT cytotoxicity assay, MDA-MB-435; type: cell-based, human; conditions: for IC50: 72 h exposure
From the text: as §2, §1

[12] = tested on: UMUC3 bladder cancer cell line; experiment: MTT cytotoxicity assay, UMUC3; type: cell-based; conditions: Homo sapiens, 72 h exposure
From the text: as §2, §1

Compound | IC50 [2] | IC50 [3] | IC50 ([4]; Table 4, ovarian cancer panel) | also measured
CC(=O)O[C@H]1C(=O)[C@@]2(C)[C@H]([C@H](OC(=O)c3ccccc3)[C@]3(O)C[C@H](OC(=O)[C@H](O)[C@@H](NC(=O)c4ccccc4)c4ccccc4)C(C)=C1C3(C)C)[C@]1(OC(C)=O)CO[C@@H]1C[C@@H]2O [paclitaxel, reference compound] |  |  |  | mitochondrial superoxide, fluorescence microscopy ([1]; 1.5 μM): only induced a minor amount of mitochondrial superoxide
C#CC(=O)N(c1ccc(-n2cnnn2)c(C)c1)C(C(=O)NC1CCCC1)c1cccc(F)c1 (stereo not drawn) [Compound 23] | 0.25 µM | 1.5 µM | 2 µM | IC50 ([5]; Table 4, ovarian cancer panel): 0.72 µM
C#CC(=O)N(c1ccc(-n2cnnn2)c(C)c1)C(C(=O)NC1CCCC1)c1ccc(F)c(F)c1 (stereo not drawn) [Compound 22] | 2.5 µM | 1.5 µM | 0.32 µM | IC50 ([5]; Table 4, ovarian cancer panel): 0.33 µM
C#CC(=O)N(c1cc(OC)c(OC)c(OC)c1)C(C(=O)NC1CCCC1)c1cccs1 (stereo not drawn) [Compound 27] | 0.42 µM | 2.2 µM | 0.33 µM | 
C#CC(=O)N(CC(=O)NCC(=O)OCC)c1ccc(-n2cnnn2)c(C)c1 [Compound 44] | > 10 µM | > 10 µM | 6.3 µM | 
C#CC(=O)N(c1ccc(-n2cnnn2)c(C)c1)C(C(=O)NC1CCCC1)c1c(F)c(F)c(F)c(F)c1F (stereo not drawn) [Compound 24] | 0.6 µM | 5 µM | 0.45 µM | 
C#CC(=O)NCC(=O)N(c1ccc(OC)cc1OC)C(C(=O)NC1CCCC1)c1cccs1 (stereo not drawn) [Compound 36] | 2.3 µM | 3.1 µM | 8.5 µM | 
C#CC(=O)N(c1ccc(OC)cc1OC)C(C(=O)NCC(=O)O)c1cccs1 (stereo not drawn) [Compound 39] | > 10 µM | 6 µM | 8 µM | 
C#CC(=O)N(c1ccc(C(N)=O)cc1)C(C(=O)NC1CCCC1)c1ccccc1 (stereo not drawn) [Compound 34] | 2.5 µM | 1.2 µM | 2.5 µM | 
C#CC(=O)N(c1cccc(O)c1)C(C(=O)NC1CCCC1)c1cccs1 (stereo not drawn) [Compound 26] | 1.5 µM | 2.2 µM | 0.32 µM | 
C#CC(=O)NCCC(=O)N(c1ccc(OC)cc1OC)C(C(=O)NC1CCCC1)c1cccs1 (stereo not drawn) [Compound 37] | 2.3 µM | 1.5 µM | 9 µM | 
C#CC(=O)N(c1ccc(-n2cnnn2)c(C)c1)C(C(=O)NC1CCCC1)c1ccc(F)cc1 (stereo not drawn) [Compound 21] | 3.1 µM | 2.2 µM | 0.52 µM | IC50 ([5]; Table 4, ovarian cancer panel): 0.31 µM
C#CC(=O)N(c1ccc(-n2cnnn2)c(C)c1)C(C(=O)NC1CCCC1)c1ccccc1 (stereo not drawn) [Compound 9, N-[2-(Cyclopentylamino)-2-oxo-1-phenylethyl]-N-[3-methyl-4-(1Htetraazol-1-yl)phenyl]Propynamide] |  |  |  | IC50 [6]: 5.7 ± 0.9 µM; AUC ([7]; in vivo, 24 mg/kg): 0.1249 µg·h/mL; Cmax ([7]; in vivo, 24 mg/kg): 6.2 ng/mL; Tmax ([7]; in vivo, 24 mg/kg): 5 h; half-life ([7]; in vivo, 24 mg/kg): ~9.3 h; t1/2 ([7]; in vivo, 24 mg/kg): 9.3 h; concentration at 1 h ([7]; plasma, mice, 24 mg/kg i.p., 1 hour, read-out: concentration in the blood one hour following i.p. administration): 6.2 ng/mL; IC50 [8]: 7.2 ± 0.2 µM; IC50 [9]: 1.5 ± 1.1 µM; IC50 ([4]; MTT, 72 h exposure (Table 2)): 1 ± 0.7 µM; IC50 [10]: 0.4 ± 0.1 µM; IC50 ([5]; MTT, 72 h exposure (Table 2)): 1.9 ± 0.3 µM; cytotoxic potency in MDA-MB-435 cells [11]: most potent analogue; IC50 [11]: 0.6 ± 0.3 µM; IC50 ([11]; Homo sapiens, MDA-MB-435, 72 h): 0.6 to 6.3 µM; IC50 [12]: 7.8 ± 1.8 µM
C#CC(=O)N(c1ccccc1)C(C(=O)NC1CCCCC1)c1cccs1 (stereo not drawn) [Compound 18, N[2-(Cyclohexylamino)-2-oxo-1-thien-2-ylethyl]-N-phenyl Propynamide] |  |  |  | IC50 [6]: > 20 µM; IC50 [8]: 14 µM; IC50 [9]: > 10 µM; IC50 ([4]; MTT, 72 h exposure (Table 2)): 1.3 ± 0.4 µM; IC50 [10]: 3.5 ± 1.4 µM; IC50 ([5]; MTT, 72 h exposure (Table 2)): > 10 µM; IC50 ([11]; Homo sapiens, MDA-MB-435, 72 h): > 10 µM; intensity of MitoSOX staining, fluorescence microscopy ([1]; 24 hours): remarkably enhanced the intensity of MitoSOX staining; mitochondrial superoxide production, flow cytometry ([1]; IC50 or 3×IC50, 24 hours): induce significant amounts of superoxide; IC50 [12]: > 20 µM

Source: patent US20130071328A1, “Propynoic Acid Carbamoyl Methyl-Amides and Pharmaceutical Compositions and Methods Based Thereon” (UNIVERSITY OF SOUTHERN CALIFORNIA, priority 2011, published 2013)
